Experimental data published in patent publication US20130040882A1, “USE OF FIBROBLAST GROWTH FACTOR FRAGMENTS” (NOVARTIS AG, priority 2003, published 2013).

Tested on: uterine gene expression
Test: Gene expression profiling (HGU133A) in the uterus of ovariectomized monkeys treated with estradiol, tamoxifen or raloxifene
Type: in vivo, cynomolgus monkeys (Macaca fascicularis)
Conditions: uterus, OVX monkeys

CC/C(=C(\c1ccccc1)c1ccc(OCCN(C)C)cc1)c1ccccc1 [tamoxifen]
2.7 fold: Fold change relative to OVX: Collagen, type IV, alpha 1 (entry with OVX average 690)
0.9 fold: Fold change relative to SHAM control: Integrin, beta 5 | Fold change relative to SHAM control: Intercrine-alpha, mrna sequence | Fold change relative to SHAM control: Phospholipid transfer protein | Fold change relative to SHAM control: Pituitary tumour-transforming 1 interacting protein | Fold change relative to SHAM control: Stem cell growth factor; lymphocyte secreted C-type lectin | Fold change relative to SHAM control: Thioredoxin interacting protein | Fold change relative to SHAM control: Fibronectin 1 (entry with SHAM average 100) | Fold change relative to SHAM control: Fibronectin 1 (entry with SHAM average 920) | Fold change relative to SHAM control: Fibronectin 1 (entry with SHAM average 1288) | Fold change relative to SHAM control: Fibronectin 1 (entry with SHAM average 1301)
3.7 fold: Fold change relative to OVX: Insulin-like growth factor 1 (somatomedin C) (entry with OVX average 102) | Fold change relative to OVX: Collagen, type I, alpha 2 (entry with OVX average 2757)
4.6 fold: Fold change relative to OVX: Insulin-like growth factor 1 (somatomedin C) (entry with OVX average 156)
3.2 fold: Fold change relative to OVX: Collagen, type IV, alpha 1 (entry with OVX average 182)
0.3 fold: Fold change relative to SHAM control: Matrix metalloproteinase 19
1.2 fold: Fold change relative to SHAM control: Latent transforming growth factor beta binding protein 1 | Fold change relative to SHAM control: Insulin receptor (Table 46) | Fold change relative to SHAM control: Insulin receptor (Table 51) | Fold change relative to SHAM control: Solute carrier family 2 (facilitated glucose/fructose transporter), member 5 (entry with SHAM average 317) | Fold change relative to SHAM control: Collagen, type III, alpha 1 (Ehlers-Danlos syndrome type IV, autosomal dominant) (entry with SHAM average 2992)
1.0 fold: Fold change relative to SHAM control: Heparan sulfate proteoglycan 2 (perlecan) | Fold change relative to SHAM control: Insulin-like growth factor binding protein 5 | Fold change relative to SHAM control: Laminin, beta 1 | Fold change relative to SHAM control: Mitogen-activated protein kinase kinase kinase kinase 4 | Fold change relative to SHAM control: Phosphatase and tensin homolog (mutated in multiple advanced cancers 1) | Fold change relative to SHAM control: Procollagen-proline, 2-oxoglutarate 4-dioxygenase (proline 4-hydroxylase), alpha polypeptide II | Fold change relative to SHAM control: Secreted protein, acidic, cysteine-rich (osteonectin) | Fold change relative to SHAM control: Transforming growth factor, beta-induced, 68 kda | Fold change relative to SHAM control: Wingless-type MMTV integration site family, member 16 | Fold change relative to SHAM control: Bone morphogenetic protein 1 (entry with SHAM average 143) | Fold change relative to SHAM control: Bone morphogenetic protein 1 (entry with SHAM average 205) | Fold change relative to SHAM control: Fibrillin 1 (Marfan syndrome) (entry with SHAM average 236) | Fold change relative to SHAM control: Fibronectin 1 (entry with SHAM average 1089)
1.3 fold: Fold change relative to SHAM control: Solute carrier family 2 (facilitated glucose/fructose transporter), member 5 (entry with SHAM average 291) | Fold change relative to SHAM control: Collagen, type IV, alpha 1 (entry with SHAM average 436) | Fold change relative to SHAM control: Fibrillin 1 (Marfan syndrome) (entry with SHAM average 1388) | Fold change relative to SHAM control: Collagen, type I, alpha 2 (entry with SHAM average 7758) | Fold change relative to SHAM control: H3 histone, family 3A (entry with SHAM average 10239)
1.6 fold: Fold change relative to SHAM control: LDL receptor adaptor protein | Fold change relative to OVX: Fibronectin 1 (entry with OVX average 757) | Fold change relative to SHAM control: ATP synthase, H+ transporting, mitochondrial F0 complex, subunit c (subunit 9) isoform 3 (entry with SHAM average 1045) | Fold change relative to SHAM control: Collagen, type IV, alpha 1 (entry with SHAM average 1143)
1.9 fold: Fold change relative to OVX: Bone morphogenetic protein 1 (entry with OVX average 79) | Fold change relative to OVX: Fibrillin 1 (Marfan syndrome) (entry with OVX average 124) | Fold change relative to OVX: Fibronectin 1 (entry with OVX average 586) | Fold change relative to OVX: Fibronectin 1 (entry with OVX average 648) | Fold change relative to OVX: ATP synthase, H+ transporting, mitochondrial F0 complex, subunit c (subunit 9) isoform 3 (entry with OVX average 1007) | Fold change relative to SHAM control: Collagen, type I, alpha 2 (entry with SHAM average 493)
1.5 fold: Fold change relative to SHAM control: Progesterone receptor | Fold change relative to SHAM control: Solute carrier family 22 (organic cation transporter), member 1-like | Fold change relative to SHAM control: Solute carrier family 25 (mitochondrial carrier; adenine nucleotide translocator), member 5 | Fold change relative to SHAM control: Testis Enhanced Gene Transcript (Bax Inhibitor 1)
2.2 fold: Fold change relative to OVX: Bone morphogenetic protein 1 (entry with OVX average 93) | Fold change relative to OVX: Solute carrier family 2 (facilitated glucose/fructose transporter), member 5 (entry with OVX average 171)
3.4 fold: Fold change relative to OVX: Collagen, type III, alpha 1 (Ehlers-Danlos syndrome type IV, autosomal dominant) (entry with OVX average 1084)
6.1 fold: Fold change relative to OVX: Collagen, type I, alpha 2 (entry with OVX average 154)
2.9 fold: Fold change relative to SHAM control: Tenascin C (hexabrachion) | Fold change relative to OVX: Collagen, type III, alpha 1 (Ehlers-Danlos syndrome type IV, autosomal dominant) (entry with OVX average 3445)
2.0 fold: Fold change relative to OVX: Fibronectin 1 (entry with OVX average 419) | Fold change relative to OVX: ATP synthase, H+ transporting, mitochondrial F0 complex, subunit c (subunit 9) isoform 3 (entry with OVX average 811)
2.3 fold: Fold change relative to OVX: Fibronectin 1 (entry with OVX average 39)
2.6 fold: Fold change relative to SHAM control: Insulin-like growth factor 1 (somatomedin C) (entry with SHAM average 581)
0.6 fold: Fold change relative to SHAM control: Cyclin-dependent kinase inhibitor 1C (p57, Kip2) (entry with SHAM average 459) | Fold change relative to SHAM control: Cyclin-dependent kinase inhibitor 1C (p57, Kip2) (entry with SHAM average 660)
4.8 fold: Fold change relative to OVX: Insulin-like growth factor 1 (somatomedin C) (entry with OVX average 310)
1.4 fold: Fold change relative to SHAM control: H2A histone family, member Y | Fold change relative to SHAM control: Histone H2A.F/Z variant | Fold change relative to SHAM control: Nidogen (enactin) | Fold change relative to SHAM control: Peroxiredoxin 1 | Fold change relative to SHAM control: SET domain, bifurcated 1 | Fold change relative to SHAM control: Secreted frizzled-related protein 4 | Fold change relative to OVX: H3 histone, family 3A (entry with OVX average 9495) | Fold change relative to OVX: H3 histone, family 3A (entry with OVX average 9692) | Fold change relative to SHAM control: ATP synthase, H+ transporting, mitochondrial F0 complex, subunit c (subunit 9) isoform 3 (entry with SHAM average 1355) | Fold change relative to SHAM control: Collagen, type III, alpha 1 (Ehlers-Danlos syndrome type IV, autosomal dominant) (entry with SHAM average 7354) | Fold change relative to SHAM control: H3 histone, family 3A (entry with SHAM average 9408)
0.5 fold: Fold change relative to OVX: Cyclin-dependent kinase inhibitor 1C (p57, Kip2) (entry with OVX average 527) | Fold change relative to OVX: Cyclin-dependent kinase inhibitor 1C (p57, Kip2) (entry with OVX average 762)
1.7 fold: Fold change relative to SHAM control: Insulin-like growth factor binding protein 2, 36 kda | Fold change relative to SHAM control: Insulin-like growth factor 1 (somatomedin C) (entry with SHAM average 226) | Fold change relative to SHAM control: Insulin-like growth factor 1 (somatomedin C) (entry with SHAM average 417)
1.1 fold: Fold change relative to SHAM control: LIM and senescent cell antigen-like domains 1 | Fold change relative to SHAM control: Procollagen C-endopeptidase enhancer | Fold change relative to SHAM control: Protein tyrosine kinase 9 | Fold change relative to SHAM control: Secreted frizzled-related protein 1 | Fold change relative to SHAM control: Serine (or cysteine) proteinase inhibitor, clade H (heat shock protein 47), member 1, (collagen binding protein 1) | Fold change relative to SHAM control: Ubiquinol-cytochrome c reductase, Rieske iron-sulfur polypeptide 1 | Fold change relative to SHAM control: Wingless-type MMTV integration site family, member 2B
0.7 fold: Fold change relative to OVX: Insulin receptor (Table 46) | Fold change relative to OVX: Insulin receptor (Table 51) | Fold change relative to OVX: Cyclin-dependent kinase inhibitor 1C (p57, Kip2) (entry with OVX average 224)
0.8 fold: Fold change relative to SHAM control: Growth associated protein 43 | Fold change relative to SHAM control: Osteoglycin (osteoinductive factor, mimecan) | Fold change relative to SHAM control: SPARC-like 1 (mast9, hevin) | Fold change relative to SHAM control: Cyclin-dependent kinase inhibitor 1C (p57, Kip2) (entry with SHAM average 201)
2.1 fold: Fold change relative to OVX: Solute carrier family 2 (facilitated glucose/fructose transporter), member 5 (entry with OVX average 176) | Fold change relative to OVX: Fibrillin 1 (Marfan syndrome) (entry with OVX average 874)
